Consider 31 molecules from patent US10822337B2, “TGF-β inhibitorC” (Rigel Pharmaceuticals, Inc., priority 2015, dated 2020).

Each structure is given as a SMILES string. pIC50: −log10 of the molar value.

Test [1] deals with TGF-β signaling (TGF-β pSMAD, MPC-11). Kind of test: AlphaScreen SureFire SMAD3 (p-Ser423/425) assay, inhibition of TGF-β signaling. It is filed as cell-based. To be noted: Mus musculus, p-SMAD-3 (Ser423/425) in cell lysate after TGF-β stimulation. The essentials: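 Phosphorylation of endogenous SMAD-3 at Ser423/425 was quantified with an AlphaScreen SureFire assay. Cells were exposed to compound for about 10 minutes, stimulated with TGF-β, and lysed in 1× Lysis Buffer. Lysate (5 μL) was combined with Reaction/Activation buffer plus Acceptor beads for 2 hours, then Donor beads for 1½ hours, and read on a plate reader.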

Test [2] deals with GDF8 signaling (GDF pSMAD, MPC11). Kind of test: AlphaScreen SureFire SMAD3 (p-Ser423/425) assay, inhibition of GDF8 signaling. It is filed as cell-based. To be noted: Mus musculus, MPC-11, p-SMAD-3 (Ser423/425) in cell lysate after GDF8 stimulation.

For `Fc1ccc(-c2nn3c(c2-c2ccc4ncnn4c2)CCC3)cc1Cl` [Compound 148, 6-(2-(3-Chloro-4-fluorophenyl)-5,6-dihydro-4H-pyrrolo[1,2-b]pyrazol-3-yl)-[1,2,4]triazolo[1,5-a]pyridine], the results for the pIC50 in test [1] and in test [2] were 6.51 and 7.01, respectively.

Regarding `Fc1ccc(-c2nn3c(c2-c2ccc4[nH]ncc4c2)CCC3)cc1OC(F)(F)F` [Compound 150, 5-(2-(4-Fluoro-3-trifluoromethoxyphenyl)-5,6-dihydro-4H-pyrrolo[1,2-b]pyrazol-3-yl)-1H-indazole], the results for the pIC50 in test [1] and in test [2] were 5.88 and 6.51, respectively.

Turning to `Fc1ccc(-c2nn3c(c2-c2ccc4nccn4c2)CCC3)cc1OC(F)(F)F` [Compound 151, 6-(2-(4-Fluoro-3-trifluoromethoxyphenyl)-5,6-dihydro-4H-pyrrolo[1,2-b]pyrazol-3-yl)imidazo[1,2-a]pyridine], the figures for the pIC50 in test [1] and in test [2] were 5.93 and 6.41, respectively.

Regarding `Fc1ccc(-c2nn3c(c2-c2ccc4ncsc4c2)CCC3)cc1OC(F)(F)F` [Compound 152, 6-(2-(4-Fluoro-3-trifluoromethoxyphenyl)-5,6-dihydro-4H-pyrrolo[1,2-b]pyrazol-3-yl)benzo[d]thiazole], the negative-log IC50 (pIC50) in test [1] was 5.76; in test [2], 6.31.

Turning to `Fc1ccc(-c2nn3c(c2-c2ccc4nccnc4c2)CCC3)cc1OC(F)(F)F` [Compound 153, 6-(2-(4-Fluoro-3-trifluoromethoxyphenyl)-5,6-dihydro-4H-pyrrolo[1,2-b]pyrazol-3-yl)quinoxaline], the pIC50 was 5.75 in test [1] and 6.26 in test [2].

With `Fc1ccc(-c2nn3c(c2-c2ccc4ncnn4c2)CCC3)cc1OC(F)(F)F` [Compound 154, 6-(2-(4-Fluoro-3-trifluoromethoxyphenyl)-5,6-dihydro-4H-pyrrolo[1,2-b]pyrazol-3-yl)-[1,2,4]triazolo[1,5-a]pyridine], the pIC50 in test [1] is 6.08; in test [2] it was 6.35.

Take `Fc1ccc(-c2nn3c(c2-c2ccc4[nH]ncc4c2)CCC3)c(F)c1Cl` [Compound 155, 5-(2-(3-Chloro-2,4-difluorophenyl)-5,6-dihydro-4H-pyrrolo[1,2-b]pyrazol-3-yl)-1H-indazole]: the results for the pIC50 in test [1] and in test [2] were 5.99 and 6.98, respectively.

Regarding `Fc1ccc(-c2nn3c(c2-c2ccc4cn[nH]c4c2)CCC3)c(F)c1Cl` [Compound 156, 6-(2-(3-Chloro-2,4-difluorophenyl)-5,6-dihydro-4H-pyrrolo[1,2-b]pyrazol-3-yl)-1H-indazole], the pIC50 in test [1] is 5.55; in test [2], 6.36.

On to `Fc1ccc(-c2nn3c(c2-c2ccc4nccn4c2)CCC3)c(F)c1Cl` [Compound 157, 6-(2-(3-Chloro-2,4-difluorophenyl)-5,6-dihydro-4H-pyrrolo[1,2-b]pyrazol-3-yl)imidazo[1,2-a]pyridine], for which the pIC50 is 6.16 in test [1] and 6.88 in test [2].

As for `Fc1ccc(-c2nn3c(c2-c2ccc4ncsc4c2)CCC3)c(F)c1Cl` [Compound 158, 6-(2-(3-Chloro-2,4-difluorophenyl)-5,6-dihydro-4H-pyrrolo[1,2-b]pyrazol-3-yl)benzo[d]thiazole], the pIC50 in test [1] was 6.26; in test [2] it was 7.07.

As to `Fc1ccc(-c2nn3c(c2-c2ccc4nccnc4c2)CCC3)c(F)c1Cl` [Compound 159, 6-(2-(3-Chloro-2,4-difluorophenyl)-5,6-dihydro-4H-pyrrolo[1,2-b]pyrazol-3-yl)quinoxaline], the pIC50 in test [1] is 5.56; in test [2], 6.28.

As to `Fc1ccc(-c2nn3c(c2-c2ccc4ncnn4c2)CCC3)c(F)c1Cl` [Compound 160, 6-(2-(3-Chloro-2,4-difluorophenyl)-5,6-dihydro-4H-pyrrolo[1,2-b]pyrazol-3-yl)-[1,2,4]triazolo[1,5-a]pyridine], the pIC50 in test [1] was 6.13; in test [2], 6.53.

Consider `COc1c(F)ccc(-c2nn3c(c2-c2ccc4[nH]ncc4c2)CCC3)c1F` [Compound 161, 5-(2-(2,4-Difluoro-3-methoxyphenyl)-5,6-dihydro-4H-pyrrolo[1,2-b]pyraozl-3-yl)-1H-indazole], for which the values for the pIC50 in test [1] and in test [2] were 5.84 and 6.20, respectively.

Consider `COc1c(F)ccc(-c2nn3c(c2-c2ccc4ncsc4c2)CCC3)c1F` [Compound 162, 6-(2-(2,4-Difluoro-3-methoxyphenyl)-5,6-dihydro-4H-pyrrolo[1,2-b]pyrazol-3-yl)benzo[d]thiazole], for which the values for the pIC50 in test [1] and in test [2] were 5.65 and 6.26, respectively.

On to `COc1c(F)ccc(-c2nn3c(c2-c2ccc4ncnn4c2)CCC3)c1F` [Compound 163, 6-(2-(2,4-Difluoro-3-methoxyphenyl)-5,6-dihydro-4H-pyrrolo[1,2-b]pyrazol-3-yl)-[1,2,4]triazolo[1,5-a]pyridine], for which the pIC50 is 5.87 in test [1] and 6.37 in test [2].

For the molecule `COc1ccc(F)c(-c2nn3c(c2-c2ccc4nccn4c2)CCC3)c1` [Compound 164, 6-(2-(2-Fluoro-5-methoxyphenyl)-5,6-dihydro-4H-pyrrolo[1,2-b]pyrazol-3-yl)imidazo[1,2-a]pyridine], the figures for the pIC50 in test [1] and in test [2] were 5.88 and 6.24, respectively.

In the case of `COc1ccc(F)c(-c2nn3c(c2-c2ccc4nccnc4c2)CCC3)c1` [Compound 165, 6-(2-(2-Fluoro-5-methoxyphenyl)-5,6-dihydro-4H-pyrrolo[1,2-b]pyrazol-3-yl)quinoxaline], the pIC50 in test [1] is 7.54; in test [2], 8.14.

`Cc1c(F)ccc(-c2nn3c(c2-c2ccc4[nH]ncc4c2)CCC3)c1F` [Compound 167, 5-(2-(2,4-Difluoro-3-methylphenyl)-5,6-dihydro-4H-pyrrolo[1,2-b]pyrazol-3-yl)-1H-indazole]: the values for the pIC50 in test [1] and in test [2] were 6.27 and 6.68, respectively.

Regarding `Cc1c(F)ccc(-c2nn3c(c2-c2ccc4cn[nH]c4c2)CCC3)c1F` [Compound 168, 6-(2-(2,4-Difluoro-3-methylphenyl)-5,6-dihydro-4H-pyrrolo[1,2-b]pyrazol-3-yl)-1H-indazole], the negative-log IC50 (pIC50) in test [1] is 6.10; in test [2] it was 6.38.

Take `Cc1c(F)ccc(-c2nn3c(c2-c2ccc4nccn4c2)CCC3)c1F` [Compound 169, 6-(2-(2,4-Difluoro-3-methylphenyl)-5,6-dihydro-4H-pyrrolo[1,2-b]pyrazol-3-yl)imidazo[1,2-a]pyridine]: the figures for the pIC50 in test [1] and in test [2] were 6.33 and 6.75, respectively.

`Cc1c(F)ccc(-c2nn3c(c2-c2ccc4ncsc4c2)CCC3)c1F` [Compound 170, 6-(2-(2,4-Difluoro-3-methylphenyl)-5,6-dihydro-4H-pyrrolo[1,2-b]pyrazol-3-yl)benzo[d]thiazole]: the pIC50 in test [1] is 6.22; in test [2], 6.67.

For `Cc1c(F)ccc(-c2nn3c(c2-c2ccc4ncccc4c2)CCC3)c1F` [Compound 171, 6-(2-(2,4-Difluoro-3-methylphenyl)-5,6-dihydro-4H-pyrrolo[1,2-b]pyrazol-3-yl)quinoline], the pIC50 in test [1] was 5.74; in test [2] it was 5.91.

In the case of `Cc1c(F)ccc(-c2nn3c(c2-c2ccc4nccnc4c2)CCC3)c1F` [Compound 172, 6-(2-(2,4-Difluoro-3-methylphenyl)-5,6-dihydro-4H-pyrrolo[1,2-b]pyrazol-3-yl)quinoxaline], the pIC50 is 5.75 in test [1] and 6.17 in test [2].

Regarding `Cc1c(F)ccc(-c2nn3c(c2-c2ccc4ncnn4c2)CCC3)c1F` [Compound 173, 6-(2-(2,4-Difluoro-3-methyphenyl)-5,6-dihydro-4H-pyrrolo[1,2-b]pyrazol-3-yl)-[1,2,4]triazolo[1,5-a]pyridine], the pIC50 in test [1] is 6.48; in test [2], 6.88.

With `Fc1ccc(Cl)cc1-c1nn2c(c1-c1ccc3cn[nH]c3c1)CCC2` [Compound 174, 6-(2-(5-Chloro-2-fluorophenyl)-5,6-dihydro-4H-pyrrolo[1,2-b]pyrazol-3-yl)-1H-indazole], the results for the pIC50 in test [1] and in test [2] were 6.82 and 7.44, respectively.

Take `Fc1ccc(Cl)cc1-c1nn2c(c1-c1ccc3ncsc3c1)CCC2` [Compound 175, 6-(2-(5-Chloro-2-fluorophenyl)-5,6-dihydro-4H-pyrrolo[1,2-b]pyrazol-3-yl)benzo[d]thiazole]: the pIC50 in test [1] is 7.38; in test [2], 7.55.

With `Fc1ccc(Cl)cc1-c1nn2c(c1-c1ccc3ncccc3c1)CCC2` [Compound 176, 6-(2-(5-Chloro-2-fluorophenyl)-5,6-dihydro-4H-pyrrolo[1,2-b]pyrazol-3-yl)quinoline], the pIC50 in test [1] is 6.86; in test [2], 7.33.

Turning to `Fc1ccc(Cl)cc1-c1nn2c(c1-c1ccc3nccnc3c1)CCC2` [Compound 177, 6-(2-(5-Chloro-2-fluorophenyl)-5,6-dihydro-4H-pyrrolo[1,2-b]pyrazol-3-yl)quinoxaline], the values for the pIC50 in test [1] and in test [2] were 7.08 and 7.45, respectively.

As to `Fc1ccc(Cl)cc1-c1nn2c(c1-c1ccc3ncnn3c1)CCC2` [Compound 178, 6-(2-(5-Chloro-2-fluorophenyl)-5,6-dihydro-4H-pyrrolo[1,2-b]pyrazol-3-yl)-[1,2,4]triazolo[1,5-a]pyridine], the pIC50 in test [1] is 7.51; in test [2] it was 7.88.

As for `Cc1cc(-c2nn3c(c2-c2ccc4[nH]ncc4c2)CCC3)c(F)cc1F` [Compound 179, 5-(2-(2,4-Difluoro-5-methyphenyl)-5,6-dihydro-4H-pyrrolo[1,2-b]pyrazol-3-yl)-1H-indazole], the figures for the pIC50 in test [1] and in test [2] were 6.15 and 6.76, respectively.

In the case of `Cc1cc(-c2nn3c(c2-c2ccc4cn[nH]c4c2)CCC3)c(F)cc1F` [Compound 180, 6-(2-(2,4-Difluoro-5-methylphenyl)-5,6-dihydro-4H-pyrrolo[1,2-b]pyrazol-3-yl)-1H-indazole], the figures for the pIC50 in test [1] and in test [2] were 5.76 and 6.23, respectively.
